Laboratory results reported in patent US4672068A, “Antihypertensive 1,4-dihydropyridines having a conjugated ester” (Fujirebio Kabushiki Kaisha, priority 1984, dated 1987).

Experiments:
[1] = test system: Male spontaneously hypertensive rats (SHR), arterial blood pressure; test: Depressor response after intraduodenal administration (1 mg/kg), Table 2; format: in vivo, rat
Experimental: Arterial blood pressure was measured through the catherized artery with a pressure transducer (MPU-0.5, manufactured by Nihon Kohden Kabushiki Kaisha). The catheter was inserted into the abdominal aorta via the median coccygcal artery of SHR under light ether anesthesia. The recordings were made on a rectigraph (manufactured by Sanei Sokki Kabushiki Kaisha). The 1,4-dihydropyridine derivatives prepared in the foregoing examples were administered with catheter which was inserted previously into the caudal vein or duodenum at least two hours after the operation. SHR were restrained with wire mesh cage immediately after the operation.

[2] = test system: Male spontaneously hypertensive rats (SHR), arterial blood pressure; test: Depressor response after intravenous administration (30 μg/kg), Table 1; format: in vivo, rat; conditions: for Duration: '90<' means greater than 90
Experimental: Male spontaneously hypertensive rats (SHR) which had mean arterial blood pressures higher than 140 mmHg were used for the experiments. Arterial blood pressure was measured through the catherized artery with a pressure transducer (MPU-0.5, manufactured by Nihon Kohden Kabushiki Kaisha). The catheter was inserted into the abdominal aorta via the median coccygcal artery of SHR under light ether anesthesia. The recordings were made on a rectigraph (manufactured by Sanei Sokki Kabushiki Kaisha). The 1,4-dihydropyridine derivatives prepared in the foregoing examples were administered with catheter which was inserted previously into the caudal vein or duodenum at least two hours after the operation. SHR were restrained with wire mesh cage immediately after the operation. Each derivative to be tested was dissolved in 1.5% PVP/ethanol, and then diluted with 0.9% saline or intravenous administration (30 μg/kg), or suspended in 5% gum arabic solution of intraduodenal administration (1 mg/kg).

Molecule | The time to reach the lowest BP [1] [min] | ΔBP (Maximum depressor response) [1] [mmHg] | Half-life ([1]; '120<' means greater than 120) [min] | The time to reach the lowest BP [2] [min] | ΔBP (Maximum depressor response) [2] [mmHg] | Duration [2] [min] | halflife (number in parentheses in Duration column) [2] [min]
4-(4-methoxyphenyl)-3-butenyl methyl 4-(3-nitrophenyl)-2,6-dimethyl-1,4-dihydropyridine-3,5-dicarboxylate [Example 18] | 37 | 18 | 120 |  |  |  | 
COC(=O)C1=C(C)NC(C)=C(C(=O)OCC=CC=Cc2ccc3ccccc3c2)C1c1cccc([N+](=O)[O-])c1 (stereo not shown) [Example 53, Methyl 5-(2-naphthyl)-2,4-pentadienyl 4-(3-nitrophenyl)-2,6-dimethyl-1,4-dihydropyridine-3,5-dicarboxylate] |  |  |  | 18 | 25 | 90 | 
COC(=O)C1=C(C)NC(C)=C(C(=O)OCC=CC=Cc2cccc3ccccc23)C1c1cccc([N+](=O)[O-])c1 (stereo not shown) [Example 54, Methyl 5-(1-naphthyl)-2,4-pentadienyl 4-(3-nitrophenyl)-2,6-dimethyl-1,4-dihydropyridine-3,5-dicarboxylate] |  |  |  | 6.0 | 30 | > 90 | 
COC(=O)C1=C(C)NC(C)=C(C(=O)OC/C=C/C=C\c2ccccc2)C1c1cccc([N+](=O)[O-])c1 (stereo not shown) [Example 58, Methyl (2E,4Z)-5-phenyl-2,4-pentadienyl 4-(3-nitrophenyl)-2,6-dimethyl-1,4-dihydropyridine-3,5-dicarboxylate] |  |  |  | 1.9 | 64 |  | 
COC(=O)C1=C(C)NC(C)=C(C(=O)OC/C=C\C=C\c2ccccc2)C1c1cccc([N+](=O)[O-])c1 (stereo not shown) [Example 59, Methyl (2Z,4E)-5-phenyl-2,4-pentadienyl 4-(3-nitrophenyl)-2,6-dimethyl-1,4-dihydropyridine-3,5-dicarboxylate] |  |  |  | 1.8 | 56.7 |  | 
CCOC(=O)C1=C(C)NC(C)=C(C(=O)OCC=CC=Cc2ccccc2)C1c1cccc([N+](=O)[O-])c1 (stereo not shown) [Example 60, ethyl 5-phenyl-2,4-pentadienyl 4-(3-nitrophenyl)-2,6-dimethyl-1,4-dihydropyridine-3,5-dicarboxylate] |  |  |  | 4.0 | 60 | > 90 | 
COCCOC(=O)C1=C(C)NC(C)=C(C(=O)OCC=CC=Cc2ccccc2)C1c1cccc([N+](=O)[O-])c1 (stereo not shown) [Example 62, 2-methoxyethyl 5-phenyl-2,4-pentadienyl 4-(3-nitrophenyl)-2,6-dimethyl-1,4-dihydropyridine-3,5-dicarboxylate] |  |  |  | 2.0 | 60 | > 90 | 
COC(=O)C1=C(C)NC(C)=C(C(=O)OCC=Cc2ccccc2)C1c1cccs1 (stereo not shown) [Example 65, Cinnamyl methyl 4-(2-thienyl)-2,6-dimethyl-1,4-dihydropyridine-3,5-dicarboxylate] |  |  |  | 0.3 | 18 |  | 
CC=CC=CCOC(=O)C1=C(C)NC(C)=C(C(=O)OCC)C1c1cccc([N+](=O)[O-])c1 (stereo not shown) [Example 67, Ethyl 2,4-hexadienyl 4-(3-nitrophenyl)-2,6-dimethyl-1,4-dihydropyridine-3,5-dicarboxylate] |  |  |  | 1.0 | 72 | > 90 | 37
CC=CC=CCOC(=O)C1=C(C)NC(C)=C(C(=O)OC(C)C)C1c1cccc([N+](=O)[O-])c1 (stereo not shown) [Example 68, Isopropyl 2,4-hexadienyl 4-(3-nitrophenyl)-2,6-dimethyl-1,4-dihydropyridine-3,5-dicarboxylate] |  |  |  | 1.4 | 60 | > 90 | 13
CC=CC=CCOC(=O)C1=C(C)NC(C)=C(C(=O)OCCOC)C1c1cccc([N+](=O)[O-])c1 (stereo not shown) [Example 69, 2-methoxyethyl 2,4-hexadienyl 4-(3-nitrophenyl)-2,6-dimethyl-1,4-dihydropyridine-3,5-dicarboxylate] |  |  |  | 1.0 | 60 | > 90 | 
CC=CC=CCOC(=O)C1=C(C)NC(C)=C(C(=O)OC2CCCCC2)C1c1cccc([N+](=O)[O-])c1 (stereo not shown) [Example 70, Cyclohexyl 2,4-hexadienyl 4-(3-nitrophenyl)-2,6-dimethyl-1,4-dihydropyridine-3,5-dicarboxylate] |  |  |  | 7.0 | 65 | > 90 | 
CC=CC=CCOC(=O)C1=C(C)NC(C)=C(C(=O)OCC=Cc2ccccc2)C1c1cccc([N+](=O)[O-])c1 (stereo not shown) [Example 71, Cinnamyl 2,4-hexadienyl 4-(3-nitrophenyl)-2,6dimethyl-1,4-dihydropyridine-3,5-dicarboxylate] |  |  |  | 10 | 42 | > 90 | 
CC=CC=CCOC(=O)C1=C(C)NC(C)=C(C(=O)OC)C1c1cccc(C(F)(F)F)c1 (stereo not shown) [Example 72, methyl 2,4-hexadienyl 4-(3-trifluoromethylphenyl)-2,6-dimethyl-1,4-dihydropyridine-3,5-dicarboxylate] |  |  |  | 1.5 | 63 | > 120 | 
CC=CC=CCOC(=O)C1=C(C)NC(C)=C(C(=O)OCC=CC=CC)C1c1cccc([N+](=O)[O-])c1 (stereo not shown) [Example 73, bis(2,4-hexadienyl) 4-(3-nitrophenyl)-2,6-dimethyl-1,4-dihydropyridine-3,5-dicarboxylate] |  |  |  | 6.0 | 55 | > 120 | 
COC(=O)C1=C(C)NC(C)=C(C(=O)OC(C)C=CC2=C(C)CCCC2(C)C)C1c1cccc([N+](=O)[O-])c1 (stereo not shown) [Example 74] |  |  |  | 20 | 75 | > 120 | 
CC=CC=CCOC(=O)C1=C(C)NC(C)=C(C(=O)OC(C)(C)C)C1c1cccc([N+](=O)[O-])c1 (stereo not shown) [Example 75, tert-butyl 2,4-hexadienyl 4-(3-nitrophenyl)-2,6-dimethyl-1,4-dihydropyridine-3,5-dicarboxylate] |  |  |  | 1 | 28 |  | 
CC=CC=CCOC(=O)C1=C(C)NC(C)=C(C(=O)OCC(C)C)C1c1cccc([N+](=O)[O-])c1 (stereo not shown) [Example 76, Isobutyl 2,4-hexadienyl 4-(3-nitrophenyl)-2,6-dimethyl-1,4-dihydropyridine-3,5-dicarboxylate] |  |  |  | 6 | 32 |  | 
C=C(C)COC(=O)C1=C(C)NC(C)=C(C(=O)OCC=CC=CC)C1c1cccc([N+](=O)[O-])c1 (stereo not shown) [Example 77, 2-methyl-2-propen-1-yl 2,4-hexadienyl 4-(3-nitrophenyl)-2,6-dimethyl-1,4-dihydropyridine-3,5-dicarboxylate] |  |  |  | 2 | 60 |  | 
CC=CC=CCOC(=O)C1=C(C)NC(C)=C(C(=O)OCC=CC)C1c1cccc([N+](=O)[O-])c1 (stereo not shown) [Example 78, 2-butenyl 2,4-hexadienyl 4-(3-nitrophenyl)-2,6-dimethyl-1,4-dihydropyridine-3,5-dicarboxylate] |  |  |  | 2.4 | 23 |  | 
C=CCCOC(=O)C1=C(C)NC(C)=C(C(=O)OCC=CC=CC)C1c1cccc([N+](=O)[O-])c1 (stereo not shown) [Example 79, 3-butenyl 2,4-hexadienyl 4-(3-nitrophenyl)-2,6-dimethyl-1,4-dihydropyridine-3,5-dicarboxylate] |  |  |  | 2.7 | 55 |  | 
C=CCOC(=O)C1=C(C)NC(C)=C(C(=O)OCC=CC=CC)C1c1cccc([N+](=O)[O-])c1 (stereo not shown) [Example 80, Allyl 2,4-hexadienyl 4-(3-nitrophenyl)-2,6-dimethyl-1,4-dihydropyridine-3,5-dicarboxylate] |  |  |  | 1.4 | 40 |  | 
CC=CC=CCOC(=O)C1=C(C)NC(C)=C(C(=O)OCCCC)C1c1cccc([N+](=O)[O-])c1 (stereo not shown) [Example 83, n-butyl 2,4-hexadienyl 4-(3-nitrophenyl)-2,6-dimethyl-1,4-dihydropyridine-3,5-dicarboxylate] |  |  |  | 2.6 | 45 |  | 
CC=CC=CCOC(=O)C1=C(C)NC(C)=C(C(=O)OCCC)C1c1cccc([N+](=O)[O-])c1 (stereo not shown) [Example 84, n-propyl 2,4-hexadienyl 4-(3-nitrophenyl)-2,6-dimethyl-1,4-dihydropyridine-3,5-dicarboxylate] |  |  |  | 2 | 35 |  | 
CC=CC=CCOC(=O)C1=C(C)NC(C)=C(C(=O)OCC2CC2)C1c1cccc([N+](=O)[O-])c1 (stereo not shown) [Example 85, Cyclopropylmethyl 2,4-hexadienyl 4-(3-nitrophenyl)-2,6-dimethyl-1,4-dihydropyridine-3,5-dicarboxylate] |  |  |  | 2.6 | 35 |  | 
Benzyl 2,4-hexadienyl 4-(2-furyl)-2,6-dimethyl-1,4-dihydropyridine-3,5-dicarboxylate [Example 81] |  |  |  | 2.0 | 25 |  | 
